This is an account of results in US20090074676A1, “Inhibition of p38 MAPK For Treatment Of Obesity” (SMITHKLINE BEECHAM CORPORATION, priority 2005, published 2009).

SMILES strings stand for the structures. Entries after “also recorded” stand apart in the source; their conditions may differ.

Experiment [1] has as its system 3T3-L1 adipocytes. Particulars: by reducing GLUT4 activity; cited from earlier work.
Experiment [2] concerns diet-induced obese (DIO) AKR mice. Put plainly: Experiment 1: four weeks treatment of 18-19 weeks old male DIO AKR mice on high fat diet (body weight, body composition, glucose, ITT). In kind it is in vivo. The protocol: Compound 2 was administered for four weeks treatment in 18-19 weeks old male, diet-induced obese (DIO) AKR mice. Methods: Male AKR mice, from Jackson Laboratories, group housed, 18-19 weeks old, on high fat diet (HFD, D12331 rodent diet, 58 kcal % from fat and sucrose. Research Diets, Inc., New Brunswick, N.J.) started at 4-5 weeks old. A parallel group of mice on normal diet (ND, Purina 5001) was served as diet control. During the last 4 weeks of diet period, mice on HFD were treated with vehicle (0.5% tragacanth in 0.03N HCl), Compound 2 was administered at 3 mg/kg, and 10 mg/kg, and water (control for vehicle), twice daily (BID), orally (PO) at 10 ml/kg. Mice on normal diet (ND) were treated with vehicle. Mouse number in each group was 7-10. Body weight (BW) was monitored once a week. Body composition was monitored every other week by using EchoMRI™ Whole Body Composition Analyzer (Echo Medical Systems, Houston, Tex.). Fasting blood glucose was measured at 2 weeks of treatment. Postprandial blood glucose was measured at before and end of treatment. Fasting serum insulin was measured at dosing 2 weeks via orbital bleeding. Serum IL-6 was measured at the end of treatment under fasting condition. Insulin tolerance test (ITT) was also performed at end of the diet period.

The subject of experiment [3] is DIO AKR mice. Nature of the experiment: Experiment 2: two week treatment of 24-25 weeks old male DIO AKR mice on high fat diet. The format is in vivo. The note with it: 10 & 30 mg/kg, PO, BID. As to the method:
Compound 2 was administered for a two week treatment in 24-25 weeks old male DIO AKR mice (older). Methods: Male AKR mice, from Jackson Laboratories, group housed, 24-25 weeks old, on high fat diet (HFD, D12331 rodent diet, 58 kcal % from fat and sucrose. Research Diets, Inc., New Brunswick, N.J.) started at 4-5 weeks old. A parallel group of mice on normal diet (ND, Purina 5001) was served as diet control. During the last 2 weeks of diet period, mice on HFD were treated with vehicle (0.5% tragacanth in 0.03N HCl), Compound 2 administered at 10, and 30 mg/kg, BID, PO (10 ml/kg). Mice on ND were treated with vehicle. Mouse number in each group was 7-10. Body weight (BW), body composition, postprandial blood glucose, and fasting serum insulin were measured.

In experiment [4] the test system is DIO C57BL/6 mice. Nature of the experiment: Experiment 3: four weeks treatment of male DIO C57BL/6 mice on high fat diet (body weight, body composition, glucose). The format is in vivo. The note with it: PO, BID, 4 weeks. The protocol:
Methods: Male C57BL/6 mice, from Jackson Laboratories, group housed, 18-19 weeks old, on high fat diet (HFD, D12331 rodent diet, 58 kcal % from fat and sucrose. Research Diets, Inc., New Brunswick, N.J.) started at 4-5 weeks old. A parallel group of mice on normal diet (ND, Purina 5001) was served as diet control. During the last 4 weeks of diet period, mice on HFD were treated with vehicle (0.5% tragacanth in 0.03N HCl), Compound 2 administered at 3, 10, and 30 mg/kg, BID, PO (10 ml/kg). Mice on ND were treated with vehicle. Mouse number in each group was 8-10. Body weight (BW), body composition, fasting blood glucose, postprandial blood glucose and insulin were measured. […] Epididymal fat pad was collected to determine PPARγ and GLUT4 gene expression.

Regarding `C[S+]([O-])c1ccc(-c2nc(-c3ccc(F)cc3)c(-c3ccncc3)[nH]2)cc1` (stereo not shown) [Compound 1, 4-(4-Fluorophenyl)-2-(4-methylsulfinylphenyl)-5-(4-pyridyl)imidazole], the insulin-induced glucose uptake entry in experiment [1] is on record as “reduced insulin-induced glucose uptake”.
For the molecule `COc1nccc(-c2c(-c3ccc(F)cc3)ncn2[C@H]2CC[C@H](O)CC2)n1` [Compound 2, trans-1-(4-hydroxycyclohexyl)-4-(4-fluorophenyl)-5-[(2-methoxy)pyrimidin-4-yl]imidazole], the blood glucose entry in experiment [2] (3 & 10 mg/kg, PO, BID, 4 weeks) was “no effect; also recorded: did not have any significant effect”; in experiment [3] (2 weeks), “no effect; also recorded: did not have any significant effect”; in experiment [4], “no effect; also recorded: did not have any significant effect”. For the same molecule, the lean mass entry in experiment [2] (3 & 10 mg/kg, PO, BID, 4 weeks) was “no effect”; in experiment [4], “no effect”. For the same molecule, the “reduction in body weight (BW)” value in experiment [2] (3 & 10 mg/kg, PO, BID, last 4 weeks of 14 weeks on HFD, p<0.05) is 4-9%; in experiment [3] (last 2 weeks of 20 weeks on HFD, p<0.05), 4-9%. Also, the “response to an insulin tolerance test (ITT)” value in experiment [2] (end of diet period, insulin i.p. 0.75 U/kg) is given as “did not have any significant effect”. Moreover, the “time at which the effect on BW and fat mass appeared” value in experiment [3] (more pronounced over the 2 weeks) was 4 days.
